Experimental data reported in patent US5066580A, “Xanthene dyes that emit to the red of fluorescein” (priority 1990, dated 1991).

Experiments:
[1] = Fluorescence emission maximum and quantum yield; assay type: physicochemical; conditions: for EM Max / Quantum Yield: pH 9.5; for Quantum Yield: dianionic form; for red shift of emission maxima vs carboxy analogs: compared to carboxy analogs 1, 4 and 7
Protocol: Second, quantum yields of compounds 1-9 and 14 were measured. Solutions (1×10^-6 M) of compounds 1-9 were prepared in carbonate/ bicarbonate buffer (pH 9.5). Fluorescence emission spectra were measured on a Perkin-Elmer MPF-2A fluorescence spectrophotometer in 3-mL disposable plastic cuvettes. The excitation wavelength was set 30 nm to the red of the maximum excitation wavelength and the emission spectra measured. The area under the emission spectrum was measured (F). The quantum yield (.PHI.) was determined using the following equation, F-kIo .PHI.εcb, where F is the fluorescence, k is a fluorimeter constant, Io is the light intensity at the exciting wavelength, ε is the extinction coefficient at the exciting wavelength, c is the concentration of the dye, and b is the pathlength of the cuvette. The value of k was determined for three different emission wavelength regions by using literature values of .PHI. and measuring the fluorescence of fluorescein (470-670 nm, .PHI.=0.92), eosin (500-700 nm, .PHI.=0.19) and allophycocyanin (Applied BioSystems, 600-800 nm, .PHI.=0.68). The value of Io was determined from a table that was generated by scanning the range of exciting wavelengths on the fluorescence spectrophotometer with the emission monochrometer open; a piece of white paper was placed in the sample holder to reflect the exciting light. The concentration of the dyes were 0.6-1.0 uM; this value in each case was below the concentration ([…]) required in order for the equation to be valid.
(§1) Finally, the spectral characteristics of compounds 1-9 was determined. The extinction coefficients and quantum yields or compounds 1-9 were determined at pH 9.5. The extinction coefficient and quantum yield of monoprotonated Vita Blue was also determined at pH 5.2. The extinction coefficient and the quantum yield of VBDB were determined at pH 7.2.

[2] = Absorbance maximum and extinction coefficient; assay type: physicochemical; conditions: for Abs Max / ε (extinction coefficient): pH 9.5; for red shift of absorbance maxima vs carboxy analogs: compared to carboxy analogs 1, 4 and 7
Protocol: First, the extinction coefficient of compounds 1-9 and 14 was determined. Stock solutions (5×10^-3 M) of each dye were made by dissolving the dye in two equivalents of 0.1 N NaOH and making up the volume with carbonate/bicarbonate buffer (0.16, 0.34 M, pH 9.5). The solution was diluted ([…]) in additional buffer (final pH 9.5-10) and the absorbance spectrum measured. A stock solution (1.2×10^-3 M) of Vita Blue was prepared in DMSO, diluted into citrate buffer (0.1 M, pH 5 2) to give a final concentration of 1.6×10^-5 M and the absorbance spectrum measured. A stock solution (8.2×10^-3 M) of VBDB was prepared in DMSO and diluted into pyrophosphate buffer (0.1 M, pH 7.2) to give a final concentration of 8.1×10^-5 M and the absorbance spectrum measured on a Beckman model DU-6UV visible spectrophotometer.
as §1

SMILES | EM Max [1] | Quantum Yield [1] | Abs Max [2] | ε (extinction coefficient) [2] | red shift of emission maxima vs carboxy analogs [1] | effect of sulfo group on extinction coefficient and quantum yield ([1]; compared to carboxy analogs 1 and 7) | red shift of absorbance maxima vs carboxy analogs [2] | extinction coefficient and quantum yield compared to parent dyes [1] | excitation maxima compared to parent dyes [2] | quantum yield vs carboxy analog ([1]; compared to compound 4)
CN(C)c1ccc2c(-c3ccccc3C(=O)O)c3ccc(=O)cc-3oc2c1 [Compound 3, Rhodol] | 545 nm | 0.20 | 522 nm | 57000 M⁻¹ cm⁻¹ |  |  |  |  |  | 
O=C(O)c1ccccc1-c1c2c3ccccc3c(=O)cc-2oc2cc(O)c3ccccc3c12 [Compound 4, 1,2,7,8 dibenzofluorescein] | 565 nm | 0.24 | 534 nm | 81000 M⁻¹ cm⁻¹ |  |  |  |  |  | 
O=c1ccc2c(-c3ccccc3S(=O)(=O)O)c3ccc(O)cc3oc-2c1 [Compound 2, Sulfonefluorescein] | 517 nm | 0.92 | 497 nm | 78000 M⁻¹ cm⁻¹ | 1-5 nm | little effect | 6-14 nm |  |  | 
O=C(O)c1ccccc1-c1c2c3ccccc3c(=O)c(Br)c-2oc2c(Br)c(O)c3ccccc3c12 [Compound 5, 1,2,7,8-Dibenzo-4.5-dibromofluorescein] | 581 nm | 0.05 | 549 nm | 24000 M⁻¹ cm⁻¹ |  |  |  | lower than the parent dyes | at longer wavelengths | 
O=c1cc2oc3cc(O)c4ccccc4c3c(-c3ccccc3S(=O)(=O)O)c-2c2ccccc12 [Compound 6, 1,2,7,8-Dibenzosulfonefluorescein] | 567 nm | 0.48 | 541 nm | 81000 M⁻¹ cm⁻¹ | 1-5 nm |  | 6-14 nm |  |  | twice the quantum yield
O=C(O)c1ccccc1-c1c2ccc3cc(O)ccc3c2oc2c1ccc1cc(=O)ccc12 [Compound 7, naphthofluorescein] | 660 nm | 0.14 | 595 nm | 44000 M⁻¹ cm⁻¹ |  |  |  |  |  | 
O=C(O)c1ccccc1-c1c2ccc3c(Br)c(O)ccc3c2oc2c1ccc1c(Br)c(=O)ccc12 [Compound 8, 4,10 Dibromonaphthofluorescein] | 682 nm | 0.05 | 605 nm | 32000 M⁻¹ cm⁻¹ |  |  |  |  |  | 
